Key:
[1] = system: Sweetpotato Whitefly-Crawler (Bemisia tabaci) (WF) (BEMITA); assay: Insecticidal test for Sweetpotato Whitefly-crawler (WF) in foliar spray assay on cotton plants; format: in vivo; details: 200 ppm foliar spray, graded after 9 days, Abbott corrected % control; for mortality at 200 ppm: Bemisia tabaci, 216 h, read-out: % Control (or Mortality) rating, WF
Description: Cotton plants (Gossypium hirsutum) grown in 3-inch pots, with 1 small (4-5 cm) true leaves, were used as test substrate. The plants were infested with 200-400 whitefly eggs 4-5 days prior to chemical application. Four pots with individual plants were used for each treatment. Test compounds (2 mg) were dissolved in 1 mL of acetone solvent, forming stock solutions of 2000 ppm test compound. The stock solutions were diluted 10× with 0.025% Tween 20 in H2O (diluents) to obtain the solution at 200 ppm test compound. A hand-held aspirator-type sprayer was used for spraying a solution to both sides of cotton leaves until runoff. Reference plants (solvent check) were sprayed with the diluent only containing 10% by volume of acetone solvent. Treated plants were held in a holding room for 9 days at approximately 25° C. and ambient relative humidity (RH) prior to grading. Evaluation was conducted by counting the number of live 3-4 nymph stage per plant under a microscope. Percent control was measured by using Abbott's correction formula (W. S. Abbott, “A Method of Computing the Effectiveness of an Insecticide” J. Econ. Entomol. 18 (1925), pp. 265-26′7) as follows. Corrected % Control=100*(X−Y)/X
X=No. of live nymphs on solvent check plants and
Y=No. of live nymphs on treated plants. […]

[2] = system: Green Peach Aphid (Myzus persicae) (GPA) (MYZUPE); assay: Bioassay for Green Peach Aphid (GPA), foliar spray on cabbage seedlings; format: in vivo; details: 200 ppm foliar spray, graded after three days, Abbott corrected % control; for mortality at 200 ppm: Myzus persicae, 72 h, read-out: % Control (or Mortality) rating, GPA
Description: Cabbage seedlings grown in 3-inch pots, with 2-3 small (3-5 cm) true leaves, were used as test substrate. The seedlings were infested with 20-50 GPA (wingless adult and nymph stages) one day prior to chemical application. Four pots with individual seedlings were used for each treatment. Test compounds (2 mg) were dissolved in 2 mL of acetone/methanol (1:1) solvent, forming stock solutions of 1000 ppm test compound. The stock solutions were diluted 5× with 0.025% Tween 20 in H2O to obtain the solution at 200 ppm test compound. A hand-held aspirator-type sprayer was used for spraying a solution to both sides of […] leaves until runoff. Reference plants (solvent check) were sprayed with the diluent only containing 20% by volume of acetone/methanol (1:1) solvent. Treated plants were held in a holding room for three days at approximately 25° C. and ambient relative humidity (RH) prior to grading. Evaluation was conducted by counting the number of live aphids per plant under a microscope. Percent control was measured by using Abbott's correction formula (W. S. Abbott, “A Method of Computing the Effectiveness of an Insecticide” J. Econ. Entomol. 18 (1925), pp. 265-267) as follows. Corrected % Control=100*(X−Y)/X
X=No. of live aphids on solvent check plants and
Y=No. of live aphids on treated plants
Biological Data for Green Peach Aphid (GPA) (MYZUPE) and Sweetpotato Whitefly-crawler (WF) (BEMITA)” (See Table Section).

Compound	mortality at 200 ppm [1]	mortality at 200 ppm [2]	% Control (or Mortality) rating, WF [1]	% Control (or Mortality) rating, GPA [2]
C#CCN(C(=O)CCS(=O)(=O)CCC(F)(F)F)c1sc(-c2cccnc2)nc1Cl [FA10, N-(4-chloro-2-(pyridin-3-yl)thiazol-5-yl)-N-(prop-2-yn-1-yl)-3-((3,3,3-trifluoropropyl)sulfonyl)propanamide]	80 to 100%	80 to 100%	–	–
4-Chloro-N-(prop-2-yn-1-yl)-2-(pyrimidin-5-yl)thiazol-5-amine hydrochloride [CA2]	–	–	B (More than 0-Less than 80)	B (More than 0-Less than 80)
C#CCN(C(=O)CCS(=O)(=O)CC1CC1(F)F)c1sc(-c2cccnc2)nc1C (stereo not drawn) [FA13, 3-(((2,2-Difluorocyclopropyl)methyl)sulfonyl)-N-(4-methyl-2-(pyridin-3-yl)thiazol-5-yl)-N-(prop-2-yn-1-yl)propanamide]	80 to 100%	80 to 100%	–	–
C#CCN(C(=O)C(C)CSC)c1sc(-c2cccnc2)nc1C (stereo not drawn) [Compound P2, 2-Methyl-N-(4-methyl-2-(pyridin-3-yl)thiazol-5-yl)-3-(methylthio)-N-(prop-2-yn-1-yl) propanamide]	80 to 100%	80 to 100%	–	–
CC#CCN(C(=O)CCSC)c1sc(-c2cccnc2)nc1C [Compound P17, N-(But-2-yn-1-yl)-N-(4-methyl-2-(pyridin-3-yl)thiazol-5-yl)-3-(methylthio)propanamide]	80 to 100%	80 to 100%	–	–
C#CC(C)N(C(=O)OC(C)(C)C)c1sc(-c2cccnc2)nc1C (stereo not drawn) [CA12, tert-Butyl but-3-yn-2-yl(4-methyl-2-(pyridin-3-yl)thiazol-5-yl)carbamate]	80 to 100%	80 to 100%	–	–
C#CCN(C(=O)OC(C)(C)C)c1sc(Cl)nc1Cl [CA3, tert-butyl (2,4-dichlorothiazol-5-yl)(prop-2-yn-1-yl)carbamate]	–	< 0%	–	–
C#CCN(C(=O)CCSCC1CC1(F)F)c1sc(-c2cncc(F)c2)nc1C (stereo not drawn) [Compound P22, 3-(((2,2-Difluorocyclopropyl)methyl)thio)-N-(2-(5-fluoropyridin-3-yl)-4-methylthiazol-5-yl)-N-(prop-2-yn-1-yl)propanamide]	80 to 100%	80 to 100%	–	–
C#CCN(C(=O)OC(C)(C)C)c1sc(-c2cccnc2)nc1Cl [Compound C3, tert-butyl (4-chloro-2-(pyridin-3-yl)thiazol-5-yl)(prop-2-yn-1-yl)carbamate]	80 to 100%	80 to 100%	–	–
C#CC(C)N(C(=O)OC(C)(C)C)c1sc(Br)nc1C (stereo not drawn) [CA5, tert-butyl (2-bromo-4-methylthiazol-5-yl)(but-3-yn-2-yl)carbamate]	0 to 80%	0 to 80%	–	–
C#CCN(C(=O)CCSCCC(F)(F)F)c1sc(-c2cncc(F)c2)nc1C [Compound P19, N-(2-(5-Fluoropyridin-3-yl)-4-methylthiazol-5-yl)-N-(prop-2-yn-1-yl)-3-((3,3,3-trifluoropropyl)thio)propanamide]	80 to 100%	80 to 100%	–	–
CC#CCN(C(=O)CCSCC1CC1(F)F)c1sc(-c2cccnc2)nc1C (stereo not drawn) [FA14, N-(But-2-yn-1-yl)-3-(((2,2-difluorocyclopropyl)methyl)thio)-N-(4-methyl-2-(pyridin-3-yl)thiazol-5-yl)propanamide]	80 to 100%	80 to 100%	–	–
C#CCN(C(=O)CC[S+]([O-])CCC(F)(F)F)c1sc(-c2cccnc2)nc1C (stereo not drawn) [Compound P7, N-(4-Methyl-2-(pyridin-3-yl)thiazol-5-yl)-N-(prop-2-yn-1-yl)-3-((3,3,3-trifluoropropyl)sulfinyl) propanamide]	80 to 100%	80 to 100%	–	–
C#CCN(C(=O)C(C)CSC)c1sc(-c2cncc(F)c2)nc1C (stereo not drawn) [FA5, N-(2-(5-Fluoropyridin-3-yl)-4-methylthiazol-5-yl)-2-methyl-3-(methylthio)-N-(prop-2-yn-1-yl) propanamide]	80 to 100%	80 to 100%	–	–
C#CC(C)N(C(=O)CCSCCC(F)(F)F)c1sc(-c2cccnc2)nc1C (stereo not drawn) [Compound P32, N-(But-3-yn-2-yl)-N-(4-methyl-2-(pyridin-3-yl)thiazol-5-yl)-3-((3,3,3-trifluoropropyl)thio) propanamide]	80 to 100%	80 to 100%	–	–
C#CC(C)N(C(=O)CCSCC1CC1(F)F)c1sc(-c2cccnc2)nc1C (stereo not drawn) [Compound P31, N-(But-3-yn-2-yl)-3-(((2,2-difluorocyclopropyl)methyl)thio)-N-(4-methyl-2-(pyridin-3-yl)thiazol-5-yl)propanamide]	80 to 100%	80 to 100%	–	–
C#CCN(C(=O)OC(C)(C)C)c1sc(-c2cncc(F)c2)nc1C [CA8, tert-Butyl (2-(5-fluoropyridin-3-yl)-4-methylthiazol-5-yl)(prop-2-yn-1-yl) carbamate]	80 to 100%	0 to 80%	–	–
C#CCN(C(=O)CCSCC1CC1(F)F)c1sc(-c2cccnc2)nc1C (stereo not drawn) [Compound P10, 3-(((2,2-Difluorocyclopropyl)methyl)thio)-N-(4-methyl-2-(pyridin-3-yl)thiazol-5-yl)-N-(prop-2-yn-1-yl)propanamide]	80 to 100%	80 to 100%	–	–
C#CCN(C(=O)CCS(=O)(=O)CCC(F)(F)F)c1sc(-c2cccnc2)nc1C [Compound P8, N-(4-Methyl-2-(pyridin-3-yl)thiazol-5-yl)-N-(prop-2-yn-1-yl)-3-((3,3,3-trifluoropropyl)sulfonyl) propanamide]	80 to 100%	80 to 100%	–	–
C#CCN(C(=O)CC(SC)C(F)(F)F)c1sc(-c2cccnc2)nc1Cl (stereo not drawn) [Compound F3, N-(4-Chloro-2-(pyridin-3-yl)thiazol-5-yl)-4,4,4-trifluoro-3-(methylthio)-N-(prop-2-yn-1-yl) butanamide]	80 to 100%	80 to 100%	–	–
C#CCN(C(=O)CCSC)c1sc(-c2cccnc2)nc1C [Compound P1, N-(4-Methyl-2-(pyridin-3-yl)thiazol-5-yl)-3-(methylthio)-N-(prop-2-yn-1-yl)propanamide]	80 to 100%	80 to 100%	–	–
C#CCN(C(=O)CCS(=O)(=O)CCC(F)(F)F)c1sc(-c2cncnc2)nc1Cl [FA12, N-(4-Chloro-2-(pyrimidin-5-yl)thiazol-5-yl)-N-(prop-2-yn-1-yl)-3-((3,3,3-trifluoropropyl)sulfonyl) propanamide]	80 to 100%	80 to 100%	–	–
C#CCN(C(=O)CCS(C)(=O)=O)c1sc(-c2cccnc2)nc1C [Compound P4, N-(4-Methyl-2-(pyridin-3-yl)thiazol-5-yl)-3-(methylsulfonyl)-N-(prop-2-yn-1-yl)propanamide]	80 to 100%	80 to 100%	–	–
2-Methyl-N-(4-methyl-2-(pyridin-3-yl)thiazol-5-yl)-3-(methylsulfinyl)-N-(prop-2-yn-1-yl) propanamide [Compound P5]	–	–	A (80-100)	A (80-100)
4-Chloro-2-(5-fluoropyridin-3-yl)-N-(prop-2-yn-1-yl)thiazol-5-amine hydrochloride [CA1]	–	–	B (More than 0-Less than 80)	B (More than 0-Less than 80)
C#CCN(C(=O)CSC)c1sc(-c2cccnc2)nc1Cl [Compound F4, N-(4-Chloro-2-(pyridin-3-yl)thiazol-5-yl)-2-(methylthio)-N-(prop-2-yn-1-yl)acetamide]	80 to 100%	80 to 100%	–	–
CC#CCN(C(=O)CCSCCC(F)(F)F)c1sc(-c2cccnc2)nc1C [Compound P16, N-(But-2-yn-1-yl)-N-(4-methyl-2-(pyridin-3-yl)thiazol-5-yl)-3-((3,3,3-trifluoropropyl)thio) propanamide]	80 to 100%	80 to 100%	–	–
C#CCN(C(=O)CCSCCC(F)(F)F)c1sc(-c2cccnc2)nc1C [Compound P6, N-(4-Methyl-2-(pyridin-3-yl)thiazol-5-yl)-N-(prop-2-yn-1-yl)-3-((3,3,3-trifluoropropyl)thio) propanamide]	80 to 100%	–	–	–
